In US20020155443A1, “Metal binding DNA interactive compounds” (priority 2000, published 2002):

Tests used:
Form I DNA = test: Cleavage of Form I DNA under mildly alkaline conditions; type: biochemical; settings: mildly alkaline (pH 8.5) conditions
Description: It is believed that the DNA damage due to 2.12 is insensitive to either the addition of radical scavengers or the exclusion of oxygen. Additionally, treatment of a methanolic solution of 2.12 with aqueous NaOH led to the production of the bis(enol ether) 2.13 as depicted in FIG. 4.

[1] = system: B16 murine melanoma cells; test: Growth inhibition of B16 murine melanoma cells, MTT assay; type: cell-based; settings: Mus musculus, B16, read-out: IC50, growth inhibition
Experimental: The growth inhibitory activities of bis(propargylic) sulfone crown ethers 2.47 and 2.48 against B16 murine melanoma cells were determined calorimetrically with an MTT assay conducted by the Institute for Drug Development at the Cancer Research and Therapy Center in San Antonio, Tex.

Row | Compound | melting point [°C] | further results
1 | O=S1(=O)CC#CCOc2ccccc2OCC#CC1 [Compound 2.10] | 176.5 to 177.5 | –
2 | O=S1(=O)CC#CCOCCOCCOCCOCC#CC1 [Compound 2.12] | – | cleavage of Form I DNA (Form I DNA): dose-dependent cleavage
3 | CCOC(=O)c1cccc(CS(=O)(=O)CC#CCO)c1 [Compound 3.3] | 79.5 to 80.5 | –
4 | C1#CCOCCOCCOCCOCCOCCOCC#C/C=C\1 [Compound 4.7] | – | IC50 [1]: 68 µM
